Here are results for 22 compounds from patent US10775394B2, “Immunoassay for phenethylamines of the 2C and DO sub-families” (Randox Laboratories Limited, priority 2013, dated 2020).

The test system of one assay is Randox MDPV kit. Particulars: compared to 100% for (±)-MDPV, Swortwood et al 2013, Table 7; cited from earlier work.
The subject of assay [1] is Randox mephedrone/methcathinone kit. Particulars: compared to 100% for (±)-mephedrone, Swortwood et al 2013, Table 7; cited from earlier work.
For assay [2], the system named is DO antibody 2 (IgG fraction of antiserum raised to DOB-BSA). The assay is described as follows: Competitive microtitre plate ELISA, DO antibody 2 (antiserum raised to DOB-BSA). The settings on record: for % Cross reactivity: DO antibody 2, relative to DOB = 100. It counts as binding. On the procedure: The wells of an enhanced binding 96 well polystyrene microtitre plate were coated with IgG fraction of antiserum raised to DOB-BSA, diluted in 10 mM Tris, pH8.5 (125 μl/well). The appropriate antibody coating dilution was determined using standard ELISA checkerboard techniques. The plate was incubated for 2 hours at 37° C., washed 4 times over 10 minutes with Tris buffered saline containing Tween 20 (TBST) and tapped dry. Standard solutions of DOB were prepared in TBST at 0, 0.625, 1.25, 2.5, 5, 10, 20 & 40 ng/ml, and 50 μl of each was added to the appropriate wells. 75 μl of conjugate (Example 22) diluted in Tris buffer (pH 7.2) containing EDTA, D-mannitol, sucrose, thimerosal and BSA, was added to each of the wells. The appropriate dilution of conjugate was also determined using standard ELISA checkerboard techniques. The plate was incubated at 25° C. for 1 hour. Excess unbound conjugate was removed by washing 6 times over a 10-15 minute period with TBST and tapped dry. 125 μl of tetramethylbenzidine (TMB) substrate solution was added to each well of the plate that was then incubated for 20 minutes in the dark at room temperature. The reaction was terminated by addition of 125 μl 0.2 M H2SO4 to each well. The absorbance was measured at 450 nm using a microtitre plate reader. In order to determine the specificity of the competitive ELISAs, standard solutions of a range of structurally similar compounds were prepared in TBST. Using calibration curves generated from these compounds (0-40 ng/ml), the cross-reactivity was determined.
On the technique in general: In an ELISA, binding on a coated surface is turned into a signal by an enzyme label.

The subject of assay [3] is EMIT II Plus amphetamines assay. The settings on record: tested at 5,000 ng/ml, Petrie et al 2013; cited from earlier work.
The test system of assay [4] is AxSYM amphetamine/methamphetamine II assay. The settings on record: even when tested at 5,000 ng/mL, Petrie et al 2013; cited from earlier work.
Assay [5] concerns 2C antibody (IgG fraction of antiserum raised to 2C-B-BSA). The assay is described as follows: Competitive microtitre plate ELISA, 2C antibody (antiserum raised to 2C-B-BSA). Format: binding. The settings on record: for % Cross-Reactivity / IC50 (standard concentration which produces 50% inhibition of maximal signal): 2C antibody; for % Cross-Reactivity: relative to 2C-B = 100%, calibration curves 0-80 ng/ml; for IC50 (standard concentration which produces 50% inhibition of maximal signal): 2C-B standard, competitive ELISA. The method, then:
The wells of an enhanced binding 96 well polystyrene microtitre plate were coated with IgG fraction of antiserum raised to 2C-B-BSA, diluted in 10 mM Tris, pH8.5 (125 μl/well). The appropriate antibody coating dilution was determined using standard ELISA checkerboard techniques. The plate was incubated overnight at 4° C., washed 4 times over 10 minutes with Tris buffered saline containing Tween 20 (TBST) and tapped dry. Standard solutions of 2CB were prepared in TBST at 0, 1.25, 2.5, 5, 10, 20, 40 & 80 ng/ml, and 50 μl of each was added to the appropriate wells. 75 μl of conjugate (Example 11) diluted in Tris buffer (pH 7.2) containing EDTA, D-mannitol, sucrose, thimerosal and BSA, was added to each of the wells. The appropriate dilution of conjugate was also determined using standard ELISA checkerboard techniques. The plate was incubated at 25° C. for 1 hour. Excess unbound conjugate was removed by washing 6 times over a 10-15 minute period with TBST and tapped dry. 125 μl of tetramethylbenzidine (TMB) substrate solution was added to each well of the plate that was then incubated for 20 minutes in the dark at room temperature. The reaction was terminated by addition of 125 μl 0.2 M H2SO4 to each well. The absorbance was measured at 450 nm using a microtitre plate reader. In order to determine the specificity of the competitive ELISAs, standard solutions of a range of structurally similar compounds were prepared in TBST. Using calibration curves generated from these compounds (0-80 ng/ml) percentage cross-reactivity was determined.

Assay [6] concerns DO antibody 1 (IgG fraction of antiserum raised to DOB-BSA). The assay can be described thus: Competitive microtitre plate ELISA, DO antibody 1 (antiserum raised to DOB-BSA). Format: binding. The settings on record: for % Cross-Reactivity: DO antibody 1, relative to DOB = 100%, calibration curves 0-40 ng/ml. On the procedure:
The appropriate antibody coating dilution was determined using standard ELISA checkerboard techniques. The plate was incubated for 2 hours at 37° C., washed 4 times over 10 minutes with Tris buffered saline containing Tween 20 (TBST) and tapped dry. […] The appropriate dilution of conjugate was also determined using standard ELISA checkerboard techniques. The plate was incubated at 25° C. for 1 hour. Excess unbound conjugate was removed by washing 6 times over a 10-15 minute period with TBST and tapped dry. 125 μl of tetramethylbenzidine (TMB) substrate solution was added to each well of the plate that was then incubated for 20 minutes in the dark at room temperature. The reaction was terminated by addition of 125 μl 0.2 M H2SO4 to each well. The absorbance was measured at 450 nm using a microtitre plate reader.

In assay [7] the test system is CEDIA amphetamine/ecstasy immunoassay. Particulars: CEDIA assay; tested at 5,000 ng/ml; Petrie et al 2013; cited from earlier work.

Each structure is given as a SMILES string. Where a name gives a salt, the structure may show the parent alone.

In the case of `CCCC(C(=O)c1ccc2c(c1)OCO2)N1CCCC1` (racemic) [(±)-MDPV], the cross-reactivity in the assay with Randox MDPV kit is given as 100%.
Take `CNC(C)C(=O)c1ccc(C)cc1` (racemic) [(±)-mephedrone, mephedrone]: the cross-reactivity in assay [1] was 100%.
Take `COc1cc(CC(C)N)c(OC)cc1Br` (racemic) [DOB, 1-(4-bromo-2,5-dimethoxyphenyl)propan-2-amine]: the IC50 entry in assay [2] (DO antibody 2, competitive ELISA) is reported as “IC50 - 0.437 ng/mL”. Also, in assay [2], the “% Cross reactivity” value was found to be 100%. For the same compound, the cross-reactivity is reported as 39.1% in assay [3], “does not show cross-reactivity” in assay [4] and 8.5% in assay [7]. Further, the “% Cross-Reactivity” value in assay [5] is less than 1.0%; in assay [6], 100.0%. Also, the “% B/Bo” value in assay [6] (DOB 0.625 ng/ml) amounted to 64.5%; in assay [6] (DOB 1.25 ng/ml) it was 58.1%; in assay [6] (DOB 2.5 ng/ml) it was 46.3%; in assay [6] (DOB 5 ng/ml), 34.6%; in assay [6] (DOB 10 ng/ml), 27.5%; in assay [6] (DOB 20 ng/ml), 17.5%. Further, the “% B/Bo” value in assay [6] (DOB 40 ng/ml) was found to be 11.5%.
On to `COc1cc(CC(C)N)c(OC)cc1C` (racemic) [DOM, 1-(2,5-dimethoxy-4-methylphenyl)propan-2-amine], for which, in assay [2], the “% Cross reactivity” value came out at 49%. The cross-reactivity in assay [3] is 23.2%; in assay [4], “does not show cross-reactivity”; in assay [7], 3.9%. Besides, the “% Cross-Reactivity” value in assay [6] turned out to be 112.7%.
In the case of `NCCc1ccccc1` [(+)-Phenethylamine], the “% Cross-Reactivity” value in assay [5] and in assay [6] was less than 1.0% in each case. Also, the “binding of the antibody described in Table 4” value in assay [5] (summary in words) is “not”. Besides, the “binding of the antibody described in Table 2” value in assay [6] (summary in words) is on record as “not”.
On to `CC(N)Cc1ccccc1` (centres unmarked) [Amphetamine], for which the “% Cross-Reactivity” value in assay [6] is less than 1.0%.
For `CC(N)Cc1c2ccoc2c(Br)c2ccoc12` (centres unmarked) [Bromo DragonFly (HCl), 1-(4-Bromofuro[2,3-f][1]benzofuran-8-yl)propan-2-amine], the “% Cross reactivity” value in assay [2] is reported as 96%.
On the same count and under the same terms, as for `COc1cc(CC(C)N)c(OC)cc1Cl` (centres unmarked) [DOC, 4-chloro-2,5dimethoxyamphetamine], the figure is 47%.
As to `CCc1cc(OC)c(CC(C)N)cc1OC` (centres unmarked) [DOET], the “% Cross reactivity” value in assay [2] worked out at 50%. The cross-reactivity in assay [3] is reported as 18.8%; in assay [4] it was “does not show cross-reactivity”; in assay [7] it was 4.8%.
For `COc1cc(CC(C)N)c(OC)cc1I.Cl` (centres unmarked) [DOI HCl], the “% Cross reactivity” value in assay [2] is 73%.
As to `COc1cc([N+](=O)[O-])c(OC)cc1CC(C)N` (centres unmarked) [DON, 1-(2,5-dimethoxy-4-nitrophenyl)propan-2-amine], the “% Cross reactivity” value in assay [2] was 57%. In assay [6], the “% Cross-Reactivity” value was determined as 43.1%.
Take `COc1cc(CCN)c(OC)cc1Br` [Hapten 2C-B, 1-(4-bromo-2,5-dimethoxyphenyl)ethan-2-amine]: the cross-reactivity in assay [3] is on record as 36.0%; in assay [4], “does not show cross-reactivity”; in assay [7], 3.0%. For the same compound, the “% Cross-Reactivity” value in assay [5] was 100.0%; in assay [6], less than 1.0%. The “% B/Bo” value worked out at 86.8% in assay [5] (2C-B 1.25 ng/ml); 79.2% in assay [5] (2C-B 2.5 ng/ml); 69.2% in assay [5] (2C-B 5 ng/ml); 59.5% in assay [5] (2C-B 10 ng/ml); 53.5% in assay [5] (2C-B 20 ng/ml); 44.6% in assay [5] (2C-B 40 ng/ml). The “% B/Bo” value in assay [5] (2C-B 80 ng/ml) was 38.1%. In addition, the “IC50 (standard concentration which produces 50% inhibition of maximal signal)” value is 0.024618 µg/mL in assay [5] and “is 24.6 ng/ml)” in assay [5] (listed as 2CB).
As to `COc1cc(CCN)c(OC)cc1Cl` [Hapten 2C-C, 1-(4-chloro-2,5-dimethoxyphenyl)ethan-2-amine], the “% Cross-Reactivity” value in assay [5] was 148.6%; in assay [6], less than 1.0%.
The like results for `COc1cc(CCN)c(OC)cc1C#N` [Hapten 2C-CN, 1-(4-cyano-2,5-dimethoxyphenyl)ethan-2-amine] were, in that order, 66.8% and less than 1.0%.
The like results for `COc1cc(CCN)c(OC)cc1C` [Hapten 2C-D, 1-(2,5-dimethoxy4-methylphenyl)ethan-2-amine] were, in that order, 308.3% and less than 1.0%.
Regarding `CCc1cc(OC)c(CCN)cc1OC` [Hapten 2C-E, 1-(2,5-dimethoxy-4-ethylphenyl)ethan-2-amine], the entries for the “% Cross-Reactivity” value in assay [5] and in assay [6] were 178.8% and less than 1.0%, respectively.
`COc1ccc(OC)c(CCN)c1` [Hapten 2C-H]: the figures for the cross-reactivity entry in assay [3], in assay [4] and in assay [7] were “none”, “does not show cross-reactivity” and 3.1%, respectively.
With `COc1cc(CCN)c(OC)cc1I` [Hapten 2C-I, 1-(2,5-dimethoxy-4-iodophenyl)ethan-2-amine], the cross-reactivity was 28.6% in assay [3], “does not show cross-reactivity” in assay [4] and “none” in assay [7].
For `CCCc1cc(OC)c(CCN)cc1OC` [Hapten 2C-P, 1-(2,5-dimethoxy-4-propylphenyl)ethan-2-amine], the “% Cross-Reactivity” value is listed as 276.8% in assay [5] and less than 1.0% in assay [6].
For the compound `COc1cc(SC(C)C)c(OC)cc1CCN` [Hapten 2C-T-4], the results for the cross-reactivity result in assay [3], in assay [4] and in assay [7] were “none”, “does not show cross-reactivity” and 2.2%, respectively.
On to `CN[C@@H](C)Cc1ccccc1` [Methamphetamine], for which the “% Cross-Reactivity” value in assay [6] is listed as less than 1.0%.
In the case of `COc1cc(OC)c(OC)cc1CC(C)N` (centres unmarked) [TMA, 2,4,5-trimethoxyamphetamine], the “% Cross reactivity” value in assay [2] is listed as 5%. Besides, the “% Cross-Reactivity” value in assay [6] is given as 9.8%.
